ChEMBL document CHEMBL1155947, “Discovery of a novel series of benzoic acid derivatives as potent and selective human beta3 adrenergic receptor agonists with good oral bioavailability. 3. Phenylethanolaminotetraline (PEAT) skeleton containing biphenyl or biphenyl ether moiety” (J Med Chem, 2008)

How the values were obtained:
[1] = AUC (0 to 24 hrs) in dog at 0.2 mg/kg, po by cassette assay; type: ADME, organism-based, Canis lupus familiaris; parameters: time < 24 hr, dose 0.2 mg/kg, route oral; conditions: plasma
[2] = Oral bioavailability in dog at 0.12 mg/kg by cassette assay; type: ADME, organism-based, Canis lupus familiaris; conditions: in vivo
[3] = Total clearance in rat at 0.32 mg/kg, iv; type: ADME, organism-based; parameters: dose 0.32 mg/kg, route intravenous; conditions: in vivo
[4] = Oral bioavailability in rat at 0.32 mg/kg; type: ADME, organism-based; conditions: in vivo
[5] = AUC (0 to 24 hrs) in rat at 1.0 mg/kg, po; type: ADME, organism-based; parameters: time < 24 hr, dose 1 mg/kg, route oral; conditions: plasma
[6] = Total clearance in dog at 0.12 mg/kg, iv by cassette assay; type: ADME, organism-based, Canis lupus familiaris; parameters: dose 0.12 mg/kg, route intravenous; conditions: in vivo
[7] = target: Beta-3 adrenergic receptor (Homo sapiens, UniProt P13945); assay: Agonist activity at human cloned beta3 adrenergic receptor expressed in CHO cells assessed as cAMP accumulation; type: functional, cell-based
[8] = target: Beta-2 adrenergic receptor (Homo sapiens, UniProt P07550); assay: Agonist activity at human beta2 adrenergic receptor expressed in CHO cells assessed as cAMP accumulation; type: functional, cell-based
[9] = Cmax in dog at 0.2 mg/kg, po by cassette assay; type: ADME, organism-based, Canis lupus familiaris; parameters: dose 0.2 mg/kg, route oral; conditions: in vivo
[10] = Terminal half life in rat at 0.32 mg/kg, iv; type: ADME, organism-based; parameters: dose 0.32 mg/kg, route intravenous; conditions: in vivo
[11] = Terminal half life in dog at 0.12 mg/kg, iv by cassette assay; type: ADME, organism-based, Canis lupus familiaris; parameters: dose 0.12 mg/kg, route intravenous; conditions: in vivo
[12] = Cmax in rat at 1.0 mg/kg, po; type: ADME, organism-based; parameters: dose 1 mg/kg, route oral; conditions: in vivo
[13] = target: Beta-1 adrenergic receptor (Homo sapiens, UniProt P08588)
Description: Agonist activity at human cloned beta-1 adrenergic receptor expressed in CHO cells assessed as cAMP accumulation

Homo sapiens = organism: Homo sapiens; assay: Ratio of EC50 for human cloned beta-1 adrenergic receptor to EC50 for human cloned beta3 adrenergic receptor
Canis familiaris [14] = assay: Ratio of Cmax for drug to Cmax for 3-[((7S)-7-{[(2R)-2-(3-Chlorophenyl)-2-hydroxyethyl]amino}-5,6,7,8-tetrahydro-2-naphthalenyl)oxy]benzoic acid hydrochloride in dog at 0.1 or 0.20 mg/kg, po by cassette dosing assay; type: ADME, organism-based, Canis lupus familiaris; parameters: dose 0.2 mg/kg, route oral; conditions: in vivo, 0.2 mg/kg
Canis familiaris [15] = assay: Ratio of AUC for drug to AUC for 3-[((7S)-7-{[(2R)-2-(3-Chlorophenyl)-2-hydroxyethyl]amino}-5,6,7,8-tetrahydro-2-naphthalenyl)oxy]benzoic acid hydrochloride in dog at 0.1 or 0.20 mg/kg, po by cassette dosing assay; type: ADME, organism-based, Canis lupus familiaris; parameters: dose 0.2 mg/kg, route oral; conditions: in vivo, 0.2 mg/kg
Canis familiaris [16] = assay: Ratio of AUC for drug to AUC for 4-((7S)-7-{[(2R)-2-(3-Chlorophenyl)-2-hydroxyethyl]amino}-5,6,7,8-tetrahydro-2-naphthalenyl)benzoic acid hydrochloride in dog at 0.1 or 0.20 mg/kg, po by cassette dosing assay; type: ADME, organism-based, Canis lupus familiaris; parameters: dose 0.2 mg/kg, route oral; conditions: in vivo, 0.2 mg/kg
Canis familiaris [17] = assay: Ratio of Cmax for drug to Cmax for 4-((7S)-7-{[(2R)-2-(3-Chlorophenyl)-2-hydroxyethyl]amino}-5,6,7,8-tetrahydro-2-naphthalenyl)benzoic acid hydrochloride in dog at 0.1 or 0.20 mg/kg, po by cassette dosing assay; type: ADME, organism-based, Canis lupus familiaris; parameters: dose 0.2 mg/kg, route oral; conditions: in vivo, 0.2 mg/kg
[18] = AUC (0 to 24 hrs) in dog at 0.32 mg/kg, po by cassette assay; type: ADME, organism-based, Canis lupus familiaris; parameters: time < 24 hr, dose 0.32 mg/kg, route oral; conditions: plasma
[19] = Terminal half life in dog at 0.1 mg/mL, iv by cassette assay; type: ADME, organism-based, Canis lupus familiaris; conditions: in vivo
[20] = Total clearance in dog at 0.1 mg/mL, iv by cassette assay; type: ADME, organism-based, Canis lupus familiaris; conditions: in vivo
[21] = Cmax in dog at 0.32 mg/kg, po by cassette assay; type: ADME, organism-based, Canis lupus familiaris; parameters: dose 0.32 mg/kg, route oral; conditions: in vivo
[22] = Bioavailability in dog at 0.1 mg/mL, iv by cassette assay; type: ADME, organism-based, Canis lupus familiaris; conditions: in vivo

Beta-3 adrenergic receptor, sequence (P13945 whole entry): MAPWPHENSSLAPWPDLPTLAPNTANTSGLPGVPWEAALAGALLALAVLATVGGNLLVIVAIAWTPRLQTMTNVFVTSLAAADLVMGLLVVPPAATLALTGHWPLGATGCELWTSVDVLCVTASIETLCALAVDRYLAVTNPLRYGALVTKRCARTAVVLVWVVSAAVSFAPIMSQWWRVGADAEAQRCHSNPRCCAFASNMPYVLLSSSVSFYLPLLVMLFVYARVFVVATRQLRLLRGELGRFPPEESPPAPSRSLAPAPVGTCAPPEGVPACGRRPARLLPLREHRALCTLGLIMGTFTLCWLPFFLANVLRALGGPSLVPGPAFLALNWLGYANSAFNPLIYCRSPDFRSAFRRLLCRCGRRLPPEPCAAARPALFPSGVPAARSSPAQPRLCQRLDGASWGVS
Beta-1 adrenergic receptor, sequence (P08588 whole entry): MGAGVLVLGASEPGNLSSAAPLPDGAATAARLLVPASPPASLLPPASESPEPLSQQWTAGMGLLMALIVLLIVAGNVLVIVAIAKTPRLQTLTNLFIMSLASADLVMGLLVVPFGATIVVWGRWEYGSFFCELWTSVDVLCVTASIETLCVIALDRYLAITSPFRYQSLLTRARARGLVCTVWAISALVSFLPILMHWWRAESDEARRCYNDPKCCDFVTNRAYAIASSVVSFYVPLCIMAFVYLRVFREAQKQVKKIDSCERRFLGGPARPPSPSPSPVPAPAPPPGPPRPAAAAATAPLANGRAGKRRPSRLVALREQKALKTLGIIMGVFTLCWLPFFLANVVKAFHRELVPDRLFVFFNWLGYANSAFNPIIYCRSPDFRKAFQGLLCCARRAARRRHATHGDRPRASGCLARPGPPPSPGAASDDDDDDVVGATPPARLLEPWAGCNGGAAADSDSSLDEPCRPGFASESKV
Beta-2 adrenergic receptor, sequence (P07550 whole entry): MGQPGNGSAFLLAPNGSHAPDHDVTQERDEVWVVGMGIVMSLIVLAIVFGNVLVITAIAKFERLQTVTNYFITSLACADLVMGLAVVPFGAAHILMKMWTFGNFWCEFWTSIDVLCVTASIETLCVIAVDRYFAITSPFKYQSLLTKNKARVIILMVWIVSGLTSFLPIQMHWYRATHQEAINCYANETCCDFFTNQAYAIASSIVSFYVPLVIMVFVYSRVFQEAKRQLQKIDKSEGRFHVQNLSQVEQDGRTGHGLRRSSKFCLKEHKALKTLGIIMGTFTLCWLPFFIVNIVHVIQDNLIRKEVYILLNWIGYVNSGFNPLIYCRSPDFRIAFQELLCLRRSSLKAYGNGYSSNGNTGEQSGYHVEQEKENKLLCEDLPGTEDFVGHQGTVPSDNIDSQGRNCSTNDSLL

| SMILES | EC50 [7] [nM] | EC50 [8] [nM] | EC50 [13] [nM] | Ratio EC50 (Homo sapiens) | further results |
| --- | --- | --- | --- | --- | --- |
| O=C(O)c1cc(NC2CCOCC2)cc(Oc2ccc3c(c2)C[C@@H](NC[C@H](O)c2cccc(Cl)c2)CC3)c1 | 1 |  | 340 | 340 | Ratio (Canis familiaris [14]): 0.06; Ratio AUC (Canis familiaris [15]): 0.02 |
| O=C(O)c1ccc(-c2ccc3c(c2)C[C@@H](NC[C@H](O)c2ccc(Cl)nc2)CC3)cc1 | 0.85 | > 1000 | 200 | > 1260 | Ratio AUC (Canis familiaris [16]): 0.53; Ratio (Canis familiaris [17]): 0.73 |
| Cc1cc(C(=O)O)ccc1-c1ccc2c(c1)C[C@@H](NC[C@H](O)c1ccc(Cl)cc1)CC2 | 2 |  | 800 | 400 | Ratio AUC (Canis familiaris [16]): 0.64; Ratio (Canis familiaris [17]): 0.72 |
| O=C(O)c1cccc(Oc2ccc3c(c2)C[C@@H](NC[C@H](O)c2cccc(Cl)c2)CC3)c1 | 7.1 | > 1000 | > 1000 | > 138 | AUC(0-t) at 24 h [18]: 2000 ng·h/mL; half-life [19]: 7.9 h; clearance [20]: 2.4 mL/min/kg; Cmax [21]: 151 ng/mL; Ratio (Canis familiaris [14]): 1; bioavailability [22]: 81%; Ratio AUC (Canis familiaris [15]): 1 |
| O=C(O)c1cccc(Oc2ccc3c(c2)C[C@@H](NC[C@H](O)c2cccc(Cl)c2)CCC3)c1 | 4.5 | > 1000 | 160 | 35 | AUC(0-t) at 24 h [18]: 538 ng·h/mL; half-life [19]: 3 h; clearance [20]: 6.8 mL/min/kg; Cmax [21]: 65.7 ng/mL; bioavailability [22]: 69% |
| O=C(O)c1ccc(Oc2ccc3c(c2)C[C@@H](NC[C@H](O)c2cccc(Cl)c2)CC3)nc1 | 1.47 | > 1000 | 70 | 50 | AUC(0-t) at 24 h [18]: 320 ng·h/mL; half-life [19]: 2.8 h; clearance [20]: 10.8 mL/min/kg; Cmax [21]: 49 ng/mL; bioavailability [22]: 61% |
| O=C(O)c1ccc(-c2ccc3c(c2)C[C@@H](NC[C@H](O)c2ccc(C(F)(F)F)cc2)CC3)cc1 | 3.5 | > 1000 | 775 | 221 |  |
| COc1ccc(Oc2ccc3c(c2)C[C@@H](NC[C@H](O)c2cccc(Cl)c2)CC3)cc1C(=O)O | 6 | > 1000 | > 1000 | > 166 |  |

Continued, in another order:

| EC50 [7] [nM] | EC50 [8] [nM] | EC50 [13] [nM] | Ratio EC50 (Homo sapiens) | SMILES | further results |
| --- | --- | --- | --- | --- | --- |
| 39 | > 10000 | 1500 | 38 | O=C(O)COc1ccc2c(c1)C[C@@H](NC[C@H](O)c1cccc(Cl)c1)CC2 | AUC(0-t) at 24 h [1]: 902 ng·h/mL; bioavailability [2]: 83.2%; clearance [3]: 52.6 mL/min/kg; bioavailability [4]: 60%; AUC(0-t) at 24 h [5]: 177 ng·h/mL; clearance [6]: 3 mL/min/kg; Cmax [9]: 92.5 ng/mL; half-life [10]: 1.18 h; half-life [11]: 3.8 h; Cmax [12]: 28.1 ng/mL |
| 1.3 |  | 360 | 277 | CC(=O)Nc1cc(Oc2ccc3c(c2)C[C@@H](NC[C@H](O)c2cccc(Cl)c2)CC3)cc(C(=O)O)c1 | Ratio (Canis familiaris [14]): 0.1; Ratio AUC (Canis familiaris [15]): 0.06 |
| 5.3 | > 1000 | 890 | 168 | COc1cc(Oc2ccc3c(c2)C[C@@H](NC[C@H](O)c2cccc(Cl)c2)CC3)cc(C(=O)O)c1 |  |
